This note sets out measurements from article PMC8711236 (Biochemistry, 2021).

In the assay the target is Cytochrome P450 3A4 (CYP3A4) (Homo sapiens, UniProt P08684). In words: UV-vis spectral equilibrium titration. The class given is binding.
Chain of Cytochrome P450 3A4 (CYP3A4) (P08684 14-503): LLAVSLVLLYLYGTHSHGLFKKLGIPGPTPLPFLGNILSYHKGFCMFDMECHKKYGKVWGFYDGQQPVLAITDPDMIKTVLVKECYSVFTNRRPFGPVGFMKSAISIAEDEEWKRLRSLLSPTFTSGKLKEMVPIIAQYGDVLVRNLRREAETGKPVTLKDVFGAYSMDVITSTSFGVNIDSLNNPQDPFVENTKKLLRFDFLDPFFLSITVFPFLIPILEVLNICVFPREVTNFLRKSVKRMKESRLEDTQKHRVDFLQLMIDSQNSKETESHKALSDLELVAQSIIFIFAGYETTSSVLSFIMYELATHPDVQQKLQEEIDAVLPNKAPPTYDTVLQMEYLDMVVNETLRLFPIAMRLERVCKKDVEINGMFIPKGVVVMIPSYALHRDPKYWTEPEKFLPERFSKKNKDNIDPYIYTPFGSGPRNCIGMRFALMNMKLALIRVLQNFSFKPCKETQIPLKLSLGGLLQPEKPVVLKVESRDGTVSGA
Chain of Cytochrome P450 3A4 (CYP3A4) (P00388 2-678 partner): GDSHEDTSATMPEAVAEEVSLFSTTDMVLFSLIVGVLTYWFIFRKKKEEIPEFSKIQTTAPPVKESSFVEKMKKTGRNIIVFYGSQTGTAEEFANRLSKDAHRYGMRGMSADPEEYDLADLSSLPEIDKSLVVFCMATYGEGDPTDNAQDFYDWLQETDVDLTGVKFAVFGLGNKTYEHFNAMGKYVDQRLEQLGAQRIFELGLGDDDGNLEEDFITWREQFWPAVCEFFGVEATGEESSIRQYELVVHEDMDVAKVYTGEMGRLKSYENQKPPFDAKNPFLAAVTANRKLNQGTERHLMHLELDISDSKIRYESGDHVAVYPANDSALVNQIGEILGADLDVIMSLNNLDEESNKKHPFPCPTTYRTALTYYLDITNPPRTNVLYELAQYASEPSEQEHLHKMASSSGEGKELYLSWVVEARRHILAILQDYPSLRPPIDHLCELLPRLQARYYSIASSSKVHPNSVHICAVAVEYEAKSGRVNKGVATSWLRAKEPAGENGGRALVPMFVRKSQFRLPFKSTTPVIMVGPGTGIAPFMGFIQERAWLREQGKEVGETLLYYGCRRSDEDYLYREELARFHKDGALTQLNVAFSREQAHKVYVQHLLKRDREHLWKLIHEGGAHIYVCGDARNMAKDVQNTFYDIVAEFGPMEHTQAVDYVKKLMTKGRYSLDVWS

For orientation: Kd means the equilibrium constant for the complex coming apart. Lower therefore signals higher affinity. The molecule `CC(=O)[C@H]1CC[C@H]2[C@@H]3CCC4=CC(=O)CC[C@]4(C)[C@H]3CC[C@]12C` [PRG, progesterone] came in with a Kd of 35 µM.
